Laboratory results reported in patent publication US12116370B2, “Condensed heterocyclic compound having a bridgehead nitrogen atom or salt thereof, agricultural or horticultural insecticide comprising the compound, and method for using the insecticide” (Nihon Nohyaku Co., Ltd., priority 2019, dated 2024).

Assays:
Type in all cases: in vivo
[1] = system: L1 stage larvae of H. contortus; experiment: Larval motility assay on Haemonchus contortus; details: 96 h, 4 days, relative to DMSO only, read-out: percent motility inhibition
Experimental: Dimethyl sulfoxide (DMSO) diluted solutions of various compounds of the present invention were added at the final concentration of 50 ppm to the wells of a 96-well plate containing a predetermined conditioned medium. Twenty L1 stage larvae of H. contortus were introduced into each well of the 96-well plate. The plate was allowed to stand for 4 days, and then larval motility was examined. The percent motility inhibition in the wells of each treatment was calculated relative to the wells of treatment with DMSO only.

Laodelphax striatellus = experiment: Insecticidal test on Laodelphax striatellus; details: in Oryza sativa, 192 h, read-out: insecticidal efficacy (corrected mortality rate) activity level
Source text: The condensed heterocyclic compounds having a bridgehead nitrogen atom represented by the general formula (1) of the present invention or salts thereof were separately dispersed in water and diluted to 500 ppm. Rice plant seedlings (variety: Nihonbare) were dipped in the agrochemical dispersions for 30 seconds. After air-dried, each seedling was put into a separate glass test tube and inoculated with ten 3rd-instar larvae of L. striatellus, and then the glass test tubes were capped with cotton plugs. At 8 days after the inoculation, the numbers of surviving larvae and dead larvae of L. striatellus were counted, the corrected mortality rate was calculated according to the formula shown below, and the insecticidal efficacy was evaluated according to the criteria of Test Example 1.

[2] = system: L1 stage larvae of D. immitis; experiment: Larval motility assay on Dirofilaria immitis; details: 72 h, 3 days, relative to DMSO only, read-out: percent motility inhibition
Experimental: Five hundred L1 stage larvae of D. immitis were diluted in a predetermined conditioned medium and introduced into each well of a 96-well plate. DMSO diluted solutions of various compounds of the present invention were added at the final concentration of 50 ppm to the wells of the 96-well plate. The plate was allowed to stand for 3 days, and then larval motility was examined. The percent motility inhibition in the wells of each treatment was calculated relative to the wells of treatment with DMSO only.

[3] = system: adults of Ctenocephalides felis; experiment: Assay for oral parasiticidal activity against adults of Ctenocephalides felis; details: read-out: mortality rate
Experimental: Newly-emerged adults of C. felis were placed into test cages (10 adults per test cage). DMSO diluted solutions of various compounds of the present invention were added to aliquots of bovine blood at the final concentration of 50 ppm and orally administered to the adults of C. felis using a feeder. The mortality rate was examined on the following day. Aberrant adults were regarded as the dead.

Plutella xylostella = experiment: Insecticidal test on Plutella xylostella; details: in Brassica rapa, 144 h, read-out: insecticidal efficacy (mortality rate) activity level
Source text: Adults of P. xylostella were released onto Chinese cabbage seedlings and allowed to lay eggs thereon. At 2 days after the release of the adults, the Chinese cabbage seedlings with laid eggs were dipped for about 30 seconds in agrochemical formulations diluted to 500 ppm, each of which contained a different kind of condensed heterocyclic compound having a bridgehead nitrogen atom represented by the general formula (1) of the present invention as an active ingredient. After air-dried, the seedlings were kept in a thermostatic chamber at 25° C. At 6 days after the dip treatment, the number of hatched larvae per plot was counted, the mortality rate of P. xylostella was calculated according to the formula shown below, and the insecticidal efficacy was evaluated according to the criteria of Test Example 1. This test was conducted in triplicate using 10 adults of P. xylostella per plot.

Compound: CCS(=O)(=O)c1cc(/C=N/OCC(F)F)cnc1-c1nc2cc(C(F)(F)F)ccn2n1 [Compound 1-7]
- inhibition at 50 ppm [1]: ≥ 50%
- mortality at 500 ppm (Laodelphax striatellus): 100%
- inhibition at 50 ppm [2]: ≥ 50%
- mortality at 50 ppm [3]: ≥ 50%
- mortality at 500 ppm (Plutella xylostella): 100%

Compound: CCS(=O)(=O)c1ccc(/C=N/OCC(F)(F)F)nc1-c1nc2cc(C(F)(F)C(F)(F)F)ncn2n1 [Compound 2-42, 5-ethylsulfonyl-6-(7-pentafluoroethyl-[1,2,4]triazolo[1,5-c]pyridin-2-yl)picolinaldehyde O-(2,2,2-trifluoroethyl)oxime]
- mortality at 500 ppm (Laodelphax striatellus): 100%
- mortality at 500 ppm (Plutella xylostella): 100%

Compound: CCS(=O)(=O)c1cc(/C(=N/OCCSC)OC)cnc1-c1nc2cc(C(F)(F)F)ccn2n1 [Compound 3-1, methyl 5-ethylsulfonyl-N-(2-methylthioethoxy)-6-(7-(trifluoromethyl)-[1,2,4]triazolo[1,5-a]pyridin-2-yl)nicotinimidate]
- mortality at 500 ppm (Laodelphax striatellus): 100%
- mortality at 500 ppm (Plutella xylostella): 100%

Compound: CCS(=O)(=O)c1cc(/C(Br)=N/OCCSC)cnc1-c1nc2cc(C(F)(F)F)ccn2n1 [Compound 3-19, 5-ethylsulfonyl-N-(2-methylthioethoxy)-6-(7-trifluoromethyl-[1,2,4]triazolo[1,5-a]pyridin-2-yl)nicotinimidoyl bromide]
- mortality at 500 ppm (Laodelphax striatellus): 100%
- mortality at 500 ppm (Plutella xylostella): 100%

Compound: CCS(=O)(=O)c1cc(/C(=N/OCCSC)C2CC2)cnc1-c1nc2cc(C(F)(F)F)ccn2n1 [Compound 3-28]
- mortality at 500 ppm (Laodelphax striatellus): 100%
- mortality at 500 ppm (Plutella xylostella): 100%

Compound: CCS(=O)(=O)c1cc(/C(=N/OCCSC)c2ccccc2)cnc1-c1nc2cc(C(F)(F)F)ccn2n1 [Compound 3-46, (5-ethylsulfonyl-6-(7-trifluoromethyl-[1,2,4]triazolo[1,5-a]pyridin-2-yl)pyridin-3-yl)phenylmethanone O-(2-methylthioethyl)oxime]
- mortality at 500 ppm (Laodelphax striatellus): 100%
- mortality at 500 ppm (Plutella xylostella): 100%
